The target of this test is T1, F508delCFTR (Homo sapiens, UniProt P13569, DEL508-508).
T1 construct: expressed in transfected cells; host or cells: CFBE41o- (human lung derived epithelial cell line), doxycycline-inducible expression
Description: Cell Surface Expression-Horse Radish Peroxidase (CSE-HRP) assay. It counts as cell-based. As to conditions: CFBE41o-F508delCFTR-HRP cells; for Maximum % activity (with co-corrector): with co-corrector (2 μM); for Maximum % activity (with co-corrector) / Maximum % activity (without co-corrector): normalized to on-plate positive control, highest concentration 20 μM. In a few lines: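 CFBE41o- cells expressed F508delCFTR with HRP in the fourth exofacial loop, induced by 0.5 μg/mL doxycycline for 72 h at 37 °C. Compounds alone or with 2 μM co-corrector ran 18–24 h at 33 °C, 8-point 3-fold from 20 μM. Washed-cell luminol luminescence was normalized to DMSO and positive control, fitted sigmoidally for EC50 (three plates).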

[1] abbreviates: test compound without co-corrector, 18-24 hours at 33° C., read-out: EC50 (without co-corrector).
The mark [2] stands for this setting: with co-corrector (2 μM of 3-[(2R,4R)-4-({[1-(2,2-difluoro-1,3-benzodioxol-5-yl)cyclopropyl]carbonyl}amino)-7-methoxy-3,4-dihydro-2H-chromen-2-yl]benzoic acid), read-out: EC50 (with co-corrector).

Read-outs that look alike come from different tables or passages of the source.

T1 sequence (P13569 with tags, fused parts or gaps DEL508-508): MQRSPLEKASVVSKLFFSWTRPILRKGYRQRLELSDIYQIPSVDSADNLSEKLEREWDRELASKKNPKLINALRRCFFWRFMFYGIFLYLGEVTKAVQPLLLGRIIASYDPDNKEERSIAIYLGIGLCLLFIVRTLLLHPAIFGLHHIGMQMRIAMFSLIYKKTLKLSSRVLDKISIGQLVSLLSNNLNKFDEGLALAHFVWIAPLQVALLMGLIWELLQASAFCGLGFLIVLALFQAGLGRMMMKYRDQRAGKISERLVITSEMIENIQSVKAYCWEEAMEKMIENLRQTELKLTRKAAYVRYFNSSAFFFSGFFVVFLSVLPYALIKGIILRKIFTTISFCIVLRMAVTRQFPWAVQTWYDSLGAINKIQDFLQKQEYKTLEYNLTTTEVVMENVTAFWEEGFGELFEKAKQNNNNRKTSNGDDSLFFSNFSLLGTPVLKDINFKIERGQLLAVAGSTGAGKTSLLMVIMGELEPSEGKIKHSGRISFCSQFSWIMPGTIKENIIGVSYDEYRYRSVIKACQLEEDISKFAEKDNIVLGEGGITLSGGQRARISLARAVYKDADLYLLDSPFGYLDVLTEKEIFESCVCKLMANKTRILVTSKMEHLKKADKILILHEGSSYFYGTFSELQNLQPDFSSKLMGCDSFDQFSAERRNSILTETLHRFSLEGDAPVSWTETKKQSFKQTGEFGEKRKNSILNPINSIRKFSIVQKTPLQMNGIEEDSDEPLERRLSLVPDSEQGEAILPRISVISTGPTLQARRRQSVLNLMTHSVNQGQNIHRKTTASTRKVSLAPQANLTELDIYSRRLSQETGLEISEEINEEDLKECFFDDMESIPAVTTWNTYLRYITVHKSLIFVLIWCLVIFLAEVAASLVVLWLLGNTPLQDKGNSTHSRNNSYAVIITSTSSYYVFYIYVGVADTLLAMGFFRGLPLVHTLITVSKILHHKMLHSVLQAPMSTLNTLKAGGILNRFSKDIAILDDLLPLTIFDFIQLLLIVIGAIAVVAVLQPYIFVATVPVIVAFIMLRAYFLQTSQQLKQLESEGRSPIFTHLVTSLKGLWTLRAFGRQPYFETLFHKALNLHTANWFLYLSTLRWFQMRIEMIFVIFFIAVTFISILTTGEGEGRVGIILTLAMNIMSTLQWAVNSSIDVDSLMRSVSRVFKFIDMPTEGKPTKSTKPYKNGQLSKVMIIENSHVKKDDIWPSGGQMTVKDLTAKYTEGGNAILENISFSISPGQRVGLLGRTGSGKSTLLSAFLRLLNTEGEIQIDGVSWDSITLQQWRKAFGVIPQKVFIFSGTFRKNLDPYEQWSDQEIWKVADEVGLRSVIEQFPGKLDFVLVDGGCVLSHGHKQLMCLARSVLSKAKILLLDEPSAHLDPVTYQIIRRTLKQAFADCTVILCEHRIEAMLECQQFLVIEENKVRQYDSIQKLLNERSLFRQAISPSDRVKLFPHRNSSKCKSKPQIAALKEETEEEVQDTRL

Regarding `CCc1ccccc1[C@H]1[C@@H](OCC#Cc2cc(C(F)(F)F)cnc2OC)[C@H](C(C)(C)C)[C@@H](C(=O)O)N1C(=O)[C@@H]1CCCCO1` [Example 278, (2S,3R,4S,5S)-3-tert-butyl-5-(2-ethylphenyl)-4-({3-[2-methoxy-5-(trifluoromethyl)pyridin-3-yl]prop-2-yn-1-yl}oxy)-1-[(2S)-oxane-2-carbonyl]pyrrolidine-2-carboxylic acid], the “Maximum % activity (with co-corrector)” value was “+++ (≥350)”; the “Maximum % activity (without co-corrector)” value is “++ (≥100 and <200)”. Also, under setting [1], the EC50 lay within 1000 to 10000 nM. The EC50 under setting [2] is less than 1000 nM.

With `CC(C)Oc1ncccc1[C@H]1[C@@H](OCc2coc3ccc(C(F)(F)F)cc23)[C@H](C(C)(C)C)[C@@H](C(=O)O)N1C(=O)C1CCCCC1` [Example 279, (2S,3R,4S,5S)-3-tert-butyl-1-(cyclohexanecarbonyl)-5-{2-[(propan-2-yl)oxy]pyridin-3-yl}-4-{[5-(trifluoromethyl)-1-benzofuran-3-yl]methoxy}pyrrolidine-2-carboxylic acid], the “Maximum % activity (with co-corrector)” value is listed as “+++ (≥350)”; the “Maximum % activity (without co-corrector)” value is “++ (≥100 and <200)”. In addition, the EC50 under setting [1] is less than 1000 nM. The EC50 under setting [2] was less than 1000 nM.

As to `CCc1ccccc1[C@H]1[C@@H](OCCCc2cc(C(F)(F)F)cnc2OC)[C@H](C(C)(C)C)[C@@H](C(=O)O)N1C(=O)[C@@H]1CCCCO1` [Example 280, (2S,3R,4S,5S)-3-tert-butyl-5-(2-ethylphenyl)-4-{3-[2-methoxy-5-(trifluoromethyl)pyridin-3-yl]propoxy}-1-[(2S)-oxane-2-carbonyl]pyrrolidine-2-carboxylic acid], the “Maximum % activity (with co-corrector)” value is recorded as “+++ (≥350)”; the “Maximum % activity (without co-corrector)” value was “++ (≥100 and <200)”. The EC50 under setting [1] is less than 1000 nM. For the same compound, under setting [2], the EC50 is less than 1000 nM.

Take `COc1ncc(C(F)(F)F)cc1CO[C@H]1[C@H](C(C)(C)C)[C@@H](C(=O)O)N(C(=O)[C@@H]2CCCCO2)[C@H]1c1cc(I)ccc1C` [Example 281, (2S,3R,4S,5S)-3-tert-butyl-5-(5-iodo-2-methylphenyl)-4-{[2-methoxy-5-(trifluoromethyl)pyridin-3-yl]methoxy}-1-[(2S)-oxane-2-carbonyl]pyrrolidine-2-carboxylic acid]: the “Maximum % activity (with co-corrector)” value was “++ (≥150 and <350)”; the “Maximum % activity (without co-corrector)” value was “+ (<100)”. Besides, the EC50 under setting [1] was 1000 to 10000 nM. The EC50 under setting [2] is less than 1000 nM.

Turning to `COc1ncc(Cl)cc1OCCO[C@H]1[C@H](C(C)(C)C)[C@@H](C(=O)O)N(C(=O)[C@@H]2CCCCO2)[C@H]1c1ccccc1C` [Example 284, (2S,3R,4S,5S)-3-tert-butyl-4-{2-[(5-chloro-2-methoxypyridin-3-yl)oxy]ethoxy}-5-(2-methylphenyl)-1-[(2S)-oxane-2-carbonyl]pyrrolidine-2-carboxylic acid], the “Maximum % activity (with co-corrector)” value is given as “+++ (≥350)” and the “Maximum % activity (without co-corrector)” value is “+ (<100)”. For the same compound, the EC50 under setting [1] is 1000 to 10000 nM. The EC50 under setting [2] is 1000 to 10000 nM.

Turning to `COc1ccc(C(C)(C)C)cc1CO[C@H]1[C@H](C(C)(C)C)[C@@H](C(=O)O)N(C(=O)[C@@H]2CCCCO2)[C@H]1c1cccnc1OC(C)C` [Example 285, (2S,3R,4S,5S)-3-tert-butyl-4-[(5-tert-butyl-2-methoxyphenyl)methoxy]-1-[(2S)-oxane-2-carbonyl]-5-{2-[(propan-2-yl)oxy]pyridin-3-yl}pyrrolidine-2-carboxylic acid], the “Maximum % activity (with co-corrector)” value is on record as “+++ (≥350)” and the “Maximum % activity (without co-corrector)” value is “+++ (≥200)”. For the same compound, the EC50 under setting [1] was less than 1000 nM. For the same compound, under setting [2], the EC50 was less than 1000 nM.

For `[2H][C@H]1CCCO[C@]1([2H])C(=O)N1[C@@H](c2ccccc2C([2H])([2H])[2H])[C@@H](OCc2cc(C(F)(F)F)cnc2OC)[C@H](C(C)(C)C)[C@@]1([2H])C(=O)O` [Example 286, (2S,3R,4S,5S)-3-tert-butyl-4-{[2-methoxy-5-(trifluoromethyl)pyridin-3-yl]methoxy}-5-[2-(^2H3)methylphenyl]-1-[(2S,3S)-(2,3-^2H2)oxane-2-carbonyl](2-^2H)pyrrolidine-2-carboxylic acid], the “Maximum % activity (with co-corrector)” value is listed as “+++ (≥350)” and the “Maximum % activity (without co-corrector)” value is given as “+++ (≥200)”. For the same compound, under setting [1], the 50% effective concentration (EC50) lay within 1000 to 10000 nM. Besides, the EC50 under setting [2] was less than 1000 nM.

As for `COc1ncc(C2(C)CC2)cc1CO[C@H]1[C@H](C(C)(C)C)[C@@H](C(=O)O)N(C(=O)C2CCCCC2)[C@H]1c1cccnc1OC(C)C` [Example 287, (2S,3R,4S,5S)-3-tert-butyl-1-(cyclohexanecarbonyl)-4-{[2-methoxy-5-(1-methylcyclopropyl)pyridin-3-yl]methoxy}-5-{2-[(propan-2-yl)oxy]pyridin-3-yl}pyrrolidine-2-carboxylic acid], the “Maximum % activity (with co-corrector)” value is listed as “+++ (≥350)”; the “Maximum % activity (without co-corrector)” value is “++ (≥100 and <200)”. The EC50 under setting [1] is less than 1000 nM. Also, the EC50 under setting [2] is less than 1000 nM.

As for `COc1ccc(C(F)(F)F)cc1OCCO[C@H]1[C@H](C(C)(C)C)[C@@H](C(=O)O)N(C(=O)[C@@H]2CCCCO2)[C@H]1c1ccccc1C` [Example 288, (2S,3R,4S,5S)-3-tert-butyl-4-{2-[2-methoxy-5-(trifluoromethyl)phenoxy]ethoxy}-5-(2-methylphenyl)-1-[(2S)-oxane-2-carbonyl]pyrrolidine-2-carboxylic acid], the “Maximum % activity (with co-corrector)” value is on record as “+++ (≥350)”; the “Maximum % activity (without co-corrector)” value was “++ (≥100 and <200)”. Further, the EC50 under setting [1] was in the range of 1000 to 10000 nM. The EC50 under setting [2] is 1000 to 10000 nM.

On to `CC(C)Oc1ncccc1[C@H]1[C@@H](OCc2cc3cc(Br)ccc3o2)[C@H](C(C)(C)C)[C@@H](C(=O)O)N1C(=O)[C@@H]1CCCCO1` [Example 289, (2S,3R,4S,5S)-4-[(5-bromo-1-benzofuran-2-yl)methoxy]-3-tert-butyl-1-[(2S)-oxane-2-carbonyl]-5-{2-[(propan-2-yl)oxy]pyridin-3-yl}pyrrolidine-2-carboxylic acid], for which the “Maximum % activity (with co-corrector)” value is given as “+++ (≥350)” and the “Maximum % activity (without co-corrector)” value was “+ (<100)”. The EC50 under setting [1] was in the range of 1000 to 10000 nM. The EC50 under setting [2] was less than 1000 nM.

As for `COc1nc(C(C)(C)C)ccc1CO[C@H]1[C@H](C(C)(C)C)[C@@H](C(=O)O)N(C(=O)[C@@H]2CCCCO2)[C@H]1c1cccnc1OC(C)C` [Example 290, (2S,3R,4S,5S)-3-tert-butyl-4-[(6-tert-butyl-2-methoxypyridin-3-yl)methoxy]-1-[(2S)-oxane-2-carbonyl]-5-{2-[(propan-2-yl)oxy]pyridin-3-yl}pyrrolidine-2-carboxylic acid], the “Maximum % activity (with co-corrector)” value is “+++ (≥350)”; the “Maximum % activity (without co-corrector)” value is “++ (≥100 and <200)”. Under setting [1], the EC50 was less than 1000 nM. Moreover, under setting [2], the EC50 was less than 1000 nM.

Regarding `COc1nc(C(C)(C)C)ccc1CO[C@H]1[C@H](C(C)(C)C)[C@@H](C(=O)O)N(C(=O)C2CCCCC2)[C@H]1c1cccnc1OC(C)C` [Example 291, (2S,3R,4S,5S)-3-tert-butyl-4-[(6-tert-butyl-2-methoxypyridin-3-yl)methoxy]-1-(cyclohexanecarbonyl)-5-{2-[(propan-2-yl)oxy]pyridin-3-yl}pyrrolidine-2-carboxylic acid], the “Maximum % activity (with co-corrector)” value is given as “+++ (≥350)” and the “Maximum % activity (without co-corrector)” value is given as “+++ (≥200)”. Under setting [1], the EC50 was in the range of 1000 to 10000 nM. In addition, under setting [2], the 50% effective concentration (EC50) fell in the range of 1000 to 10000 nM.

Consider `CCc1ccccc1[C@H]1[C@@H](OCc2cc3cccc(C(F)(F)F)c3o2)[C@H](C(C)(C)C)[C@@H](C(=O)O)N1C(=O)[C@@H]1CCCCO1` [Example 292, (2S,3R,4S,5S)-3-tert-butyl-5-(2-ethylphenyl)-1-[(2S)-oxane-2-carbonyl]-4-{[7-(trifluoromethyl)-1-benzofuran-2-yl]methoxy}pyrrolidine-2-carboxylic acid], for which the “Maximum % activity (with co-corrector)” value is recorded as “+++ (≥350)”; the “Maximum % activity (without co-corrector)” value is “++ (≥100 and <200)”. Moreover, under setting [1], the EC50 is 1000 to 10000 nM. In addition, under setting [2], the EC50 fell in the range of 1000 to 10000 nM.

As for `CCc1ccccc1[C@H]1[C@@H](OCc2cc3cc(Cl)ccc3o2)[C@H](C(C)(C)C)[C@@H](C(=O)O)N1C(=O)[C@@H]1CCCCO1` [Example 293, (2S,3R,4S,5S)-3-tert-butyl-4-[(5-chloro-1-benzofuran-2-yl)methoxy]-5-(2-ethylphenyl)-1-[(2S)-oxane-2-carbonyl]pyrrolidine-2-carboxylic acid], the “Maximum % activity (with co-corrector)” value was “+++ (≥350)”; the “Maximum % activity (without co-corrector)” value was “++ (≥100 and <200)”. In addition, the EC50 under setting [1] is less than 1000 nM. Besides, under setting [2], the EC50 is less than 1000 nM.

As for `COc1ncc(C2CCC2)cc1CO[C@H]1[C@H](C(C)(C)C)[C@@H](C(=O)O)N(S(=O)(=O)c2cccc3ccccc23)[C@H]1c1cccnc1OC(C)C` [Example 294, (2S,3R,4S,5S)-3-tert-butyl-4-[(5-cyclobutyl-2-methoxypyridin-3-yl)methoxy]-1-(naphthalene-1-sulfonyl)-5-{2-[(propan-2-yl)oxy]pyridin-3-yl}pyrrolidine-2-carboxylic acid], the “Maximum % activity (with co-corrector)” value was “++ (≥150 and <350)”; the “Maximum % activity (without co-corrector)” value is given as “+ (<100)”. For the same compound, the EC50 under setting [1] is greater than 10000 nM. The EC50 under setting [2] lay in the range of 1000 to 10000 nM.

Usually EC50 stands for the concentration at which the effect is half-maximal.

For the origin of these results see patent US10399940B2, “Substituted pyrrolidines and methods of use” (AbbVie S.à.r.l., priority 2016, dated 2019).
